# According to ChEMBL document CHEMBL5291721, “A preclinical secondary pharmacology resource illuminates target-adverse drug reaction associations of marketed drugs” (Nat Commun, 2023):
# Tests used:
# Histamine H1 receptor [1] = molecular target: T1, Histamine H1 receptor (Homo sapiens, UniProt P35367); assay type: functional, cell-based
# Histamine H1 receptor [2] = molecular target: T1, Histamine H1 receptor; assay type: functional, cell-based; remark: listed apart in the source
# D(1A) dopamine receptor = D(1A) dopamine receptor (Homo sapiens, UniProt P21728)
# Androgen receptor = molecular target: T2, Androgen receptor (Rattus norvegicus, UniProt P15207)
# T2 sequence (P15207 whole entry): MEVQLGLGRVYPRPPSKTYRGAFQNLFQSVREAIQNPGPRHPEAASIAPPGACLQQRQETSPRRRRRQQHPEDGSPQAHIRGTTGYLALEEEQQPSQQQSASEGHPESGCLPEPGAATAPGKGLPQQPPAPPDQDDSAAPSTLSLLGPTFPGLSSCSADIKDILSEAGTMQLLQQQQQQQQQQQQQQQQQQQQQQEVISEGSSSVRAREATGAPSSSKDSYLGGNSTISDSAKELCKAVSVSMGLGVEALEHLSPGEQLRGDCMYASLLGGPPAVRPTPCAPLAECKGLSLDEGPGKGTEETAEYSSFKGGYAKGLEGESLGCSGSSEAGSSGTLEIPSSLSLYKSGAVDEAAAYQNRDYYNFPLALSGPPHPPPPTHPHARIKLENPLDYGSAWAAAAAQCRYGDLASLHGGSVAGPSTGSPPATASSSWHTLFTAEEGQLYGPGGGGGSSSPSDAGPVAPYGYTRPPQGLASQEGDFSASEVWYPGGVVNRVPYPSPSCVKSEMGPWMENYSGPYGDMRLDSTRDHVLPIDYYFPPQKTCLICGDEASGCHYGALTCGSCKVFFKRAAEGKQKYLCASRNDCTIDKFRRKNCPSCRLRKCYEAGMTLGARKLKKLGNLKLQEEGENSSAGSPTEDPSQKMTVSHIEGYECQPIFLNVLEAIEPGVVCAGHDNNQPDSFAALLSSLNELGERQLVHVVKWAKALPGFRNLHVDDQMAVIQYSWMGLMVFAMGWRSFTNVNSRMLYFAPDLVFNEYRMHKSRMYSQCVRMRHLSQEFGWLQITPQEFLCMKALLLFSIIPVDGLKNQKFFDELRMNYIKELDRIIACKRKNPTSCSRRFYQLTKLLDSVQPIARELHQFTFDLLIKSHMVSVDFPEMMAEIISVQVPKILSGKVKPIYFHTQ
# [3] = molecular target: 5-hydroxytryptamine receptor 2B (Homo sapiens, UniProt P41595)
# [4] = molecular target: T3, Corticotropin-releasing factor receptor 1 (Homo sapiens, UniProt P34998)
# T3 sequence (P34998 whole entry): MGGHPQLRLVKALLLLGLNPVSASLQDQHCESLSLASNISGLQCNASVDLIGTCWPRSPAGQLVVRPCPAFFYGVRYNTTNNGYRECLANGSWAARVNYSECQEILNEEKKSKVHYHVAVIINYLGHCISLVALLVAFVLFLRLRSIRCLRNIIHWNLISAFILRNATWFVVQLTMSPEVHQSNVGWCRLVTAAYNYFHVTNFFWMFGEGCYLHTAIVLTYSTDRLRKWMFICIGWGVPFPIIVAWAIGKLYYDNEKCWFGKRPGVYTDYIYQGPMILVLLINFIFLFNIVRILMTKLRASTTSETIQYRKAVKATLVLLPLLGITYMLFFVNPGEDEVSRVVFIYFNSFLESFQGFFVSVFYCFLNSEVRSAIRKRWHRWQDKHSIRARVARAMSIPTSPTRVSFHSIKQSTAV
# [5] = molecular target: T4, Corticotropin-releasing factor receptor 2 (Homo sapiens, UniProt Q13324)
# T4 sequence (Q13324 whole entry): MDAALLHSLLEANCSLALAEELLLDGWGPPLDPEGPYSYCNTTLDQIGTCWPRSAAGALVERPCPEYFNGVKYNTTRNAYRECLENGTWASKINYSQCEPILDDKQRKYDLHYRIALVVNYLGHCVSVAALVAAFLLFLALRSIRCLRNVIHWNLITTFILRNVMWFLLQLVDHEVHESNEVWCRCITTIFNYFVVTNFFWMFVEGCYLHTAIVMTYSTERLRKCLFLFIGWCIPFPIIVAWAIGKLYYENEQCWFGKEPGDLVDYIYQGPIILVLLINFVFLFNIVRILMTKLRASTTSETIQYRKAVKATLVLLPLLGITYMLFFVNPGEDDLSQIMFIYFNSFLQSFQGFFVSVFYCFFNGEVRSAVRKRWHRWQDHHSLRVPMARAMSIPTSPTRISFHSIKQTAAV
# [6] = molecular target: 3',5'-cyclic-AMP phosphodiesterase 4A (Homo sapiens, UniProt P27815); assay type: functional
# Estrogen receptor = molecular target: T5, Estrogen receptor (Homo sapiens, UniProt P03372)
# T5 sequence (P03372 whole entry): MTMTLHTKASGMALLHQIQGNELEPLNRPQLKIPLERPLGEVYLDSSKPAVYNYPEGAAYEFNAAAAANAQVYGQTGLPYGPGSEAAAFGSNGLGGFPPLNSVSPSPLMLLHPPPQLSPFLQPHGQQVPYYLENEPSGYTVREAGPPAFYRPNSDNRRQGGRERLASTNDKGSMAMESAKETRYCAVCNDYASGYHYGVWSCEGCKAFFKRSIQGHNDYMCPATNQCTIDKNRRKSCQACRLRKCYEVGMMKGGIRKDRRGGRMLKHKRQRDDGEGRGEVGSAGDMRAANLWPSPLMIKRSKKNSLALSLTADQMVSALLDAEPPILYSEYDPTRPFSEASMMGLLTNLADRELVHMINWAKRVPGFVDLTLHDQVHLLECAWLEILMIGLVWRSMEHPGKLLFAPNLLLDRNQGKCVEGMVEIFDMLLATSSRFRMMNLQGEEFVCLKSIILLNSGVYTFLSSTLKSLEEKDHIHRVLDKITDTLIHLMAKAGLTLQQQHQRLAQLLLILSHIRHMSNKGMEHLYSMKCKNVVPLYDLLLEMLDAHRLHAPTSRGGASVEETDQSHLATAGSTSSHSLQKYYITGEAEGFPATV
# [7] = molecular target: Gamma-aminobutyric acid receptor subunit alpha-1/alpha-2/beta-2/gamma-2 (Homo sapiens, UniProt P14867+P18507+P47869+P47870); assay type: functional, cell-based
# Also: assay procedure not described here.
# Chain of D(1A) dopamine receptor (P21728 whole entry): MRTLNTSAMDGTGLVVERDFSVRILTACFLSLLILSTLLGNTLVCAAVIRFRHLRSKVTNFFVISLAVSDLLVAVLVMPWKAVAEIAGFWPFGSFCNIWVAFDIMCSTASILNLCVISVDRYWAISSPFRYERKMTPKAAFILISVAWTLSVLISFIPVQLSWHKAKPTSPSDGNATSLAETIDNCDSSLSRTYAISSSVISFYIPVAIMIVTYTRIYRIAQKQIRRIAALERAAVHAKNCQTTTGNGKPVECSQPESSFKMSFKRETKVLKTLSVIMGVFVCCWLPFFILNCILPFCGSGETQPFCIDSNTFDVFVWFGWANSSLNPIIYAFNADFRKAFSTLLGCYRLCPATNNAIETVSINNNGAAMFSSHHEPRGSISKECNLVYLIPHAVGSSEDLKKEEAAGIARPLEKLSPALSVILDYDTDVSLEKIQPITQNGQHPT
# T1 sequence (P35367 whole entry): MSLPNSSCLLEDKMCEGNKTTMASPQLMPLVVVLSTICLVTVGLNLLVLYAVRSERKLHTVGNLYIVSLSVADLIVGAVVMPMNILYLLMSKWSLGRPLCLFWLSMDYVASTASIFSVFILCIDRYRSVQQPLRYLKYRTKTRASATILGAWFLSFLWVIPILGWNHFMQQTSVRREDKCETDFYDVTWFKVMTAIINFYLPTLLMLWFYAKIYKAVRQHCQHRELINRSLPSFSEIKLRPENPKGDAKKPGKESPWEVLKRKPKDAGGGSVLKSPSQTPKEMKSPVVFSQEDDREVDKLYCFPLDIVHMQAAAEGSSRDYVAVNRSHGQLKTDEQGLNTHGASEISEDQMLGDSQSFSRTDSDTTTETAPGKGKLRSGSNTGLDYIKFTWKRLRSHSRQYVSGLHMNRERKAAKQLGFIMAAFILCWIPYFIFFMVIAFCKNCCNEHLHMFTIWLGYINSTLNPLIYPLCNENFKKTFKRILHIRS
# Chain of Gamma-aminobutyric acid receptor subunit alpha-1/alpha-2/beta-2/gamma-2 (P14867 whole entry): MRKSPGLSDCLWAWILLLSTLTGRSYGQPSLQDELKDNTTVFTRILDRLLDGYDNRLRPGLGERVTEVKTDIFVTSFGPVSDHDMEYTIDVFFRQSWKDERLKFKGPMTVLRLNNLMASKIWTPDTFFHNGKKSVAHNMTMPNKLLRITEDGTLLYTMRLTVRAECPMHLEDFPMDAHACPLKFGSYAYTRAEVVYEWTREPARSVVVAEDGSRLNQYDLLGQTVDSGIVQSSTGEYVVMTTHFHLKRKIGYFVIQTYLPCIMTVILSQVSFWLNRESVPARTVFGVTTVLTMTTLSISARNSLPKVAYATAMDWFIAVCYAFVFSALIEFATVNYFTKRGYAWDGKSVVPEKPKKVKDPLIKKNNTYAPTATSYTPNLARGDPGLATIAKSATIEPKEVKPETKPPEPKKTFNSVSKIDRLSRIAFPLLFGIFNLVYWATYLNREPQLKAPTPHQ
# Chain of Gamma-aminobutyric acid receptor subunit alpha-1/alpha-2/beta-2/gamma-2 (P47870 whole entry): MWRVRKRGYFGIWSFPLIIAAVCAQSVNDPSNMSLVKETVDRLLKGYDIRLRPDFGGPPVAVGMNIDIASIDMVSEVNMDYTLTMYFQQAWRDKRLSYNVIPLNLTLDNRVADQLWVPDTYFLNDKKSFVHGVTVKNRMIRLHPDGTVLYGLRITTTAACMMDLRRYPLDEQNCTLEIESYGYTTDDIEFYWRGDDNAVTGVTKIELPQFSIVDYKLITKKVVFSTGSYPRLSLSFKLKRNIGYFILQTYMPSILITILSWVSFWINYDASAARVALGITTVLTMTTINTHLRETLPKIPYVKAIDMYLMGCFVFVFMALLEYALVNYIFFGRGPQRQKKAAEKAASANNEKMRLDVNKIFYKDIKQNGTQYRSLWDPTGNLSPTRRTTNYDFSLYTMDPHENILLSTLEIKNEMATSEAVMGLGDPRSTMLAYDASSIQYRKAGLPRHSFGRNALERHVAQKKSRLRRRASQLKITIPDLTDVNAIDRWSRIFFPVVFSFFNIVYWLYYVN
# Chain of Gamma-aminobutyric acid receptor subunit alpha-1/alpha-2/beta-2/gamma-2 (P18507 whole entry): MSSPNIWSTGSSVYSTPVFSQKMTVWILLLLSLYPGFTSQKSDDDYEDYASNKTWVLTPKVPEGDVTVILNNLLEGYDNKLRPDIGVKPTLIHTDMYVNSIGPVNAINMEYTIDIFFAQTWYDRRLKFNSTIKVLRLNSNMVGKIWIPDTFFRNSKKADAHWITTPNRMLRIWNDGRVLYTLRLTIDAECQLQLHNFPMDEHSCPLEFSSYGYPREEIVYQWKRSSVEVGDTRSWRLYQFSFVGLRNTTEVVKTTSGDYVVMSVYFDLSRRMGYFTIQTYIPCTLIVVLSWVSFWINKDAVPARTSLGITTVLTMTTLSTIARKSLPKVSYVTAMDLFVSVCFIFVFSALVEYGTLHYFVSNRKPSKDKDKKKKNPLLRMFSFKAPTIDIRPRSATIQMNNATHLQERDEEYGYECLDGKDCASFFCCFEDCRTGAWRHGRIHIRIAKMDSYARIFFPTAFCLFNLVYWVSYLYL
# Chain of Gamma-aminobutyric acid receptor subunit alpha-1/alpha-2/beta-2/gamma-2 (P47869 whole entry): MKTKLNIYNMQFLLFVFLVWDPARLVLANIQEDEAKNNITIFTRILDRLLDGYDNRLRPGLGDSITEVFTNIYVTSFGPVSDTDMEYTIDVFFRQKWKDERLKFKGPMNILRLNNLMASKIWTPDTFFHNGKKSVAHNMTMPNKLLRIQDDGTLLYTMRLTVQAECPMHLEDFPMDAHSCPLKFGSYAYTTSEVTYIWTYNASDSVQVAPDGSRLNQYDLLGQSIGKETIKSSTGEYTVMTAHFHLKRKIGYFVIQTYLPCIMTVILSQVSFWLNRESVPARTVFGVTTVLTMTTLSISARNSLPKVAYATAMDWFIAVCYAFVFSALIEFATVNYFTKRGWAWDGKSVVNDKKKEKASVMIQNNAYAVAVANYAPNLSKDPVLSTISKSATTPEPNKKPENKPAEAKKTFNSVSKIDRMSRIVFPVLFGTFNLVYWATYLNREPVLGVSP
# Chain of 5-hydroxytryptamine receptor 2B (P41595 whole entry): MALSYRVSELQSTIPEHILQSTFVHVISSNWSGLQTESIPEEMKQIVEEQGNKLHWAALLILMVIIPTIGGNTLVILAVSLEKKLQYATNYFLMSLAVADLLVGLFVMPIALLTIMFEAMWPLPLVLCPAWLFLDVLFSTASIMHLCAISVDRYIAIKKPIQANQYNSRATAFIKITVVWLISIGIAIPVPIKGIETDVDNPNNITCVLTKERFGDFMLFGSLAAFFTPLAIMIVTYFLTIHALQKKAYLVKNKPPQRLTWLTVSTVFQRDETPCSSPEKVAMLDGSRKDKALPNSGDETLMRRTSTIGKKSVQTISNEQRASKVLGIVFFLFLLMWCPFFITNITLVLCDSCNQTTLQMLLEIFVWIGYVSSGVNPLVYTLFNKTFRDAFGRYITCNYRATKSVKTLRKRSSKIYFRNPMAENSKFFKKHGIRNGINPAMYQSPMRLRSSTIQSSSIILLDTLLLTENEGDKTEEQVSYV
# Chain of 3',5'-cyclic-AMP phosphodiesterase 4A (P27815 whole entry): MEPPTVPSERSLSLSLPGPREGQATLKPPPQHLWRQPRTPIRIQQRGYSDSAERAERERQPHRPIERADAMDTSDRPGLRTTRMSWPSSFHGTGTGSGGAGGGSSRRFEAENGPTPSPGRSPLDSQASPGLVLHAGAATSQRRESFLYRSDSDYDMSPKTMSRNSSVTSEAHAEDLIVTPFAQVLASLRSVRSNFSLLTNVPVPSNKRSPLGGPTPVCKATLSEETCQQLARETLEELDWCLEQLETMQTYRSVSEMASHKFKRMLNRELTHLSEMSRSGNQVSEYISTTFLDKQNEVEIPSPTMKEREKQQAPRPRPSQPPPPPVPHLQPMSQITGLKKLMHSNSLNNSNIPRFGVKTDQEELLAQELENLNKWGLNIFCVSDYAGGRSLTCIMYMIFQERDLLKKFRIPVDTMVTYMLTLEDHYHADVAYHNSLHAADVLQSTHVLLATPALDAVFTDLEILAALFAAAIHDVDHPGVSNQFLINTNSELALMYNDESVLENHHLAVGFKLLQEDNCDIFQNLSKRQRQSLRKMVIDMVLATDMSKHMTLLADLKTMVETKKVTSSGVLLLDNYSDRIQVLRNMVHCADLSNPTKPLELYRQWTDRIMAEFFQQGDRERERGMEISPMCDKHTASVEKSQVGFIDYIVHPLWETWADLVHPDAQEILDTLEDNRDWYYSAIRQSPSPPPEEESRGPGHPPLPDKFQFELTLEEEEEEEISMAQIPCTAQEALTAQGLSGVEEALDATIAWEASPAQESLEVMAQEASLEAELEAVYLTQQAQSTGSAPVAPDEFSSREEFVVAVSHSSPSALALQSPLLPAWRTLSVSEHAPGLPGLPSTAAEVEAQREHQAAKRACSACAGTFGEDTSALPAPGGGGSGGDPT
compound,measurement,setting,value
OCc1cc(C(O)CNCCCCCCOCCCCc2ccccc2)ccc1O (stereo not given) [SALMETEROL],AC50,Histamine H1 receptor [1],> 30 µM
same,AC50,Histamine H1 receptor [2],> 30 µM
same,AC50,D(1A) dopamine receptor,> 10 µM
Cn1c(=O)cc(N2CCC[C@@H](N)C2)n(Cc2ccccc2C#N)c1=O [ALOGLIPTIN],AC50,Androgen receptor,> 30 µM
same,AC50,[3],> 10 µM
same,AC50,[4],> 30 µM
same,AC50,[5],> 30 µM
same,AC50,D(1A) dopamine receptor,> 10 µM
Nc1c2ccccc2nc2ccccc12 [AMINACRINE],AC50,[6],> 30 µM
same,AC50,Estrogen receptor,> 30 µM
Oc1ccc2c(c1)[C@@]13CCCC[C@@]1(O)[C@@H](C2)N(CC1CCC1)CC3 [BUTORPHANOL],AC50,[7],> 30 µM
Nc1cc(-c2ccncc2)c[nH]c1=O [INAMRINONE],AC50,Androgen receptor,> 30 µM
COc1cc2c(cc1OC)C(CCc1ccc(Cl)cc1)N(C)CC2 (stereo not given) [METHOPHOLINE],AC50,Androgen receptor,> 30 µM
CC(=O)OCC(=O)[C@@]1(O)[C@H](C)C[C@H]2[C@@H]3CCC4=CC(=O)C=C[C@]4(C)[C@@]3(F)[C@@H](O)C[C@@]21C [DEXAMETHASONE ACETATE],AC50,[4],> 30 µM
same,AC50,[5],> 30 µM
Cn1cnc2c(F)c(Nc3ccc(Br)cc3Cl)c(C(=O)NOCCO)cc21 [SELUMETINIB],AC50,[3],> 10 µM
same,AC50,D(1A) dopamine receptor,> 10 µM
NC(=O)CN1CCCC1=O,AC50,[7],> 30 µM
CCN1CCCC1CNC(=O)c1cc(S(=O)(=O)CC)c(N)cc1OC (stereo not given) [AMISULPRIDE],AC50,Histamine H1 receptor [1],> 30 µM
same,AC50,[7],> 30 µM
same,AC50,Histamine H1 receptor [2],> 30 µM
O=C1CN=C(c2ccccn2)c2cc(Br)ccc2N1 [BROMAZEPAM],AC50,Androgen receptor,> 10 µM
"O=C(O)CCCCC1CCSS1 (stereo not drawn) [LIPOIC ACID, ALPHA]",AC50,[6],> 30 µM
same,AC50,Estrogen receptor,> 10 µM
CC(=O)[C@@]1(O)CC[C@H]2[C@@H]3C=C(Cl)C4=CC(=O)[C@@H]5C[C@@H]5[C@]4(C)[C@H]3CC[C@@]21C [CYPROTERONE],AC50,D(1A) dopamine receptor,> 10 µM
